Numbers after ± are expanded uncertainties.
Assay: xn = mol fraction of the nth substance listed
Settings: 101 kPa, Liquid

Compound: COS(=O)(=O)[O-].Cn1cc[n+](C)c1 [1,3-dimethylimidazolium methylsulfate] + CCO
- mass density (293.15 K, x1 = 0.0738): 891.5 ± 0.7 kg/m3
- speed of sound (293.15 K, x1 = 0.0738): 1241 ± 10 m/s
- mass density (293.15 K, x1 = 0.1356): 959.7 ± 0.5 kg/m3
- speed of sound (293.15 K, x1 = 0.1356): 1305 ± 11 m/s
- mass density (293.15 K, x1 = 0.2275): 1040.6 ± 0.5 kg/m3
- speed of sound (293.15 K, x1 = 0.2275): 1396 ± 11 m/s
- mass density (293.15 K, x1 = 0.3317): 1111.6 ± 0.8 kg/m3
- speed of sound (293.15 K, x1 = 0.3317): 1490 ± 12 m/s
- mass density (293.15 K, x1 = 0.429): 1163.9 ± 1 kg/m3
- speed of sound (293.15 K, x1 = 0.429): 1568 ± 12 m/s
- mass density (293.15 K, x1 = 0.5395): 1211.1 ± 1.3 kg/m3
- speed of sound (293.15 K, x1 = 0.5395): 1642 ± 13 m/s
- mass density (293.15 K, x1 = 0.6331): 1243.6 ± 1.6 kg/m3
- speed of sound (293.15 K, x1 = 0.6331): 1693 ± 13 m/s
- mass density (293.15 K, x1 = 0.7308): 1272 ± 1.8 kg/m3
- speed of sound (293.15 K, x1 = 0.7308): 1737 ± 13 m/s
- mass density (293.15 K, x1 = 0.8142): 1293 ± 2.1 kg/m3
- speed of sound (293.15 K, x1 = 0.8142): 1769 ± 14 m/s
- mass density (293.15 K, x1 = 0.9081): 1313.3 ± 2.4 kg/m3
- speed of sound (293.15 K, x1 = 0.9081): 1800 ± 14 m/s
- mass density (293.15 K, x1 = 0.9512): 1321.7 ± 2.5 kg/m3
- speed of sound (293.15 K, x1 = 0.9512): 1812 ± 14 m/s
- mass density (293.15 K, x1 = 1): 1330.9 ± 2.7 kg/m3
- speed of sound (293.15 K, x1 = 1): 1826 ± 14 m/s
- mass density (298.15 K, x1 = 0.0738): 887.4 ± 0.7 kg/m3
- speed of sound (298.15 K, x1 = 0.0738): 1226 ± 10 m/s
- mass density (298.15 K, x1 = 0.1356): 955.7 ± 0.5 kg/m3
- speed of sound (298.15 K, x1 = 0.1356): 1291 ± 11 m/s
- mass density (298.15 K, x1 = 0.2275): 1036.7 ± 0.5 kg/m3
- speed of sound (298.15 K, x1 = 0.2275): 1383 ± 11 m/s
- mass density (298.15 K, x1 = 0.3317): 1107.8 ± 0.8 kg/m3
- speed of sound (298.15 K, x1 = 0.3317): 1477 ± 12 m/s
- mass density (298.15 K, x1 = 0.429): 1160.2 ± 1 kg/m3
- speed of sound (298.15 K, x1 = 0.429): 1555 ± 12 m/s
- mass density (298.15 K, x1 = 0.5395): 1207.5 ± 1.3 kg/m3
- speed of sound (298.15 K, x1 = 0.5395): 1629 ± 13 m/s
- mass density (298.15 K, x1 = 0.6331): 1239.9 ± 1.6 kg/m3
- speed of sound (298.15 K, x1 = 0.6331): 1681 ± 13 m/s
- mass density (298.15 K, x1 = 0.7308): 1268.4 ± 1.8 kg/m3
- speed of sound (298.15 K, x1 = 0.7308): 1725 ± 13 m/s
- mass density (298.15 K, x1 = 0.8142): 1289.3 ± 2.1 kg/m3
- speed of sound (298.15 K, x1 = 0.8142): 1757 ± 13 m/s
- mass density (298.15 K, x1 = 0.9081): 1309.7 ± 2.4 kg/m3
- speed of sound (298.15 K, x1 = 0.9081): 1787 ± 14 m/s
- mass density (298.15 K, x1 = 0.9512): 1318.1 ± 2.5 kg/m3
- speed of sound (298.15 K, x1 = 0.9512): 1800 ± 14 m/s
- mass density (298.15 K, x1 = 1): 1327.2 ± 2.7 kg/m3
- speed of sound (298.15 K, x1 = 1): 1813 ± 14 m/s
- mass density (303.15 K, x1 = 0.0738): 883.3 ± 0.7 kg/m3
- speed of sound (303.15 K, x1 = 0.0738): 1211 ± 10 m/s
- mass density (303.15 K, x1 = 0.1356): 951.7 ± 0.5 kg/m3
- speed of sound (303.15 K, x1 = 0.1356): 1277 ± 10 m/s
- mass density (303.15 K, x1 = 0.2275): 1032.8 ± 0.5 kg/m3
- speed of sound (303.15 K, x1 = 0.2275): 1370 ± 11 m/s
